Data from PubChem BioAssay (NCI).
Several values for one entry are separate records, joined by “and”; a condition that tells them apart may be missing. Identical values can stand only once.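 Where inhibition never reached the appropriate level, the endpoint shown equals the highest concentration tested. Otherwise, values were interpolated linearly from a five-concentration, 48-hour dose response in 96-well plates. GI50 = concentration required for 50% inhibition of growth. The concentration for full growth arrest is given as TGI.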

Assays:
Test in all cases: NCI-60 cell line screen, 48 h
[1] = test system: DLD-1 colon
[2] = test system: SNB-78 CNS
[3] = test system: HOP-18 NSCLC
[4] = test system: RXF-631 renal
[5] = test system: LXFL 529 NSCLC
[6] = test system: XF 498 CNS
[7] = test system: M19-MEL melanoma
[8] = test system: MDA-N
[9] = test system: DMS 114 small cell lung
[10] = test system: SN12K1 renal

Row | Compound | TGI [1] | TGI [2] | TGI [3] | TGI [4] | TGI [5] | TGI [6] | TGI [7] | TGI [8] | TGI [9] | also measured
1 | CCOc1ccc(N=Cc2ccc3ccccc3n2)cc1 | > 100 µM | > 100 µM | > 100 µM | > 100 µM | > 100 µM | > 100 µM | > 100 µM |  |  | 
2 | CC(C)Cc1ccc(C(C)/C=C2\CCC(CN3CCCCC3)C2=O)cc1 (stereo not drawn) | 5.13 µM | 35.1 µM | 30.6 µM |  | 3.55 µM | 16 µM | 6.08 µM | 12.8 µM | 4.78 µM | 
3 | CSC1SCC2C(=O)N(C)C(C(C)C)C(=O)OCC(NC(=O)c3cnc4ccccc4n3)C(=O)NC(C)C(=O)N(C)C1C(=O)N(C)C(C(C)C)C(=O)OCC(NC(=O)c1cnc3ccccc3n1)C(=O)NC(C)C(=O)N2C (stereo not drawn) | 1.08 µM and 5.93 µM |  |  |  |  | 5.67e-05 µM |  |  | 8.38e-06 µM | GI50 [10]: 0.000567 µM; TGI [10]: 0.0248 µM and 0.0801 µM; GI50 [1]: 1.84e-05 µM; GI50 [2]: 8.96e-07 µM; GI50 [3]: 9.66 pM; GI50 [9]: 0.00345 nM; GI50 [6]: 0.0306 nM
4 | CCN(CC)/[N+]([O-])=N/OCC(C)O (stereo not drawn) |  | > 100 µM |  | > 100 µM |  | > 100 µM | > 100 µM |  | > 100 µM | 
5 | COC(=O)c1ccc(/C=C/S(=O)(=O)c2ccccc2)cc1 | > 100 µM | > 100 µM |  | > 100 µM | > 100 µM | > 100 µM | > 100 µM |  | > 100 µM | 
6 | COc1cc(OC)cc(C(=O)Cc2c(C(=O)c3ccccc3)c3ccccc3n2C(=O)c2ccccc2)c1 | > 100 µM | > 100 µM |  |  | > 100 µM | 73.6 µM | > 100 µM |  | > 100 µM | 
7 | COc1ccc(C[C@H]2NC[C@H](O)[C@H]2OC(C)=O)cc1 |  |  |  |  |  |  |  | 0.195 µM |  | 
8 | N#CC(C(=O)O)C(c1c(Cl)cccc1Cl)C(C#N)C(=O)O (stereo not drawn) |  |  |  |  |  |  |  | > 100 µM |  | 
9 | CCOC(=O)C(=O)C(/C(=N/N(C)C)C(=O)Nc1ccc(C)cc1C)c1nc2ccccc2[nH]c1=O (stereo not drawn) |  |  |  |  |  |  |  | > 100 µM |  | 
10 | CCCCCN(CCCCC)C(=O)[C@H](CCC(=O)OCc1ccccc1)NC(=O)c1cc2ccccc2[nH]1 | > 100 µM | > 100 µM | > 100 µM | > 100 µM | > 100 µM |  |  |  | > 100 µM | 
11 | CCOc1ncnc2ccc(Cl)c(I)c12 | > 100 µM |  |  |  | > 100 µM | > 100 µM | > 100 µM |  | > 100 µM | 
12 | Nc1nc(CC2(O)CCCCC2)cc(-c2ccccc2)n1 | > 100 µM | > 100 µM | > 90 µM | > 100 µM | > 100 µM |  | > 72.8 µM |  | > 70.6 µM | 
13 | N/C(=N\N=C\c1ccc(O)c(O)c1)NO | > 100 µM | > 100 µM | > 100 µM | > 100 µM | > 100 µM | > 100 µM | > 100 µM |  | > 100 µM | 
14 | CNC(=S)N(C1CCCCC1)C1CCCCC1 |  |  |  |  |  |  |  | > 100 µM |  | 
15 | CCOC(=O)NC(=O)c1cn(C2OC(COC(=O)CCCCCCCCC(=O)OCC3OC(n4cc(C(=O)NC(=O)OCC)c(=O)[nH]c4=O)C4OC(C)(C)OC34)C3OC(C)(C)OC32)c(=O)[nH]c1=O (stereo not drawn) | > 100 µM | > 100 µM | > 100 µM | > 100 µM | > 100 µM | > 100 µM | 86.2 µM |  | > 100 µM | 
16 | O=C(O)CNC(=O)C1NC(C(F)(F)F)(C(F)(F)F)OC1(C(F)(F)F)C(F)(F)F (stereo not drawn) |  |  |  |  |  |  |  | > 100 µM |  | 
17 | CC(C)=CCC/C(C)=C/CC/C(C)=C/C1CCC(=O)C1(C)C (stereo not drawn) | 32.6 µM | 53.4 µM | 63.1 µM | > 100 µM | 31.1 µM | 32.3 µM | 38 µM |  | 28.2 µM | 
18 | CC1(C)Oc2ccccc2[N+]([O-])=C1c1ccccc1 | > 100 µM | > 100 µM |  | > 100 µM | > 100 µM |  | > 100 µM |  | > 100 µM | 
19 | [N-]=[N+]=NC1C2CC3CC(C2)CC1C3 (stereo not drawn) |  | > 100 µM | > 100 µM | > 100 µM | > 100 µM |  | > 100 µM |  | > 100 µM | 
20 | CN[C@H]1CC[C@]23C[C@]24CC[C@]2(C)[C@@H]([C@H](C)N(C)C)CC[C@@]2(C)[C@@H]4CC[C@H]3C1(C)C |  |  |  |  |  |  |  | 29.2 µM |  | 
21 | C[C@H](C(O)CC(=O)C(C)(C)O)[C@H]1CC[C@@]2(C)[C@@H]3CC[C@H]4C(C)(C)[C@@H](OC5OC(COC6OC(CO)C(O)C(O)C6O)C(O)C(O)C5O)CC[C@]4(C)C3=CC[C@]12C (stereo partly drawn) |  |  |  |  |  |  |  | > 100 µM |  | 
22 | COc1c(Cl)[c]([Hg][O]C(C)=O)c(NCC(C)=O)c(OC)[c]1[Hg][O]C(C)=O | 26.8 µM | 43.2 µM |  | 3.88 µM | 3.68 µM |  | 30.1 µM |  | 26.9 µM | GI50 [1]: 12.2 µM; GI50 [2]: 15.9 µM; GI50 [9]: 4120 nM; GI50 [4]: 1.22 µM; GI50 [5]: 1.06 µM; GI50 [7]: 14.8 µM
23 | Cc1nc(-n2nc(-c3ccccc3)cc2-c2ccccc2)sc1C(=O)/C=C/c1ccc(Cl)cc1 | 26.8 µM | > 100 µM | 29.6 µM |  |  |  | 39.6 µM |  | 28.3 µM | 
24 | CCN(CC)CCC(=O)N1C/C(=C/c2ccccc2)C(=O)/C(=C\c2ccccc2)C1 | 2.82 µM |  | 9.19 µM |  | 3.27 µM | 7.57 µM | 3.68 µM | 2.45 µM | 4.54 µM | 
